What is called melting point is the temperature, or range, at which the solid turns liquid. In turn, `Cc1ccc(-n2c(-c3ccc(C#C[Si](C)(C)C)cc3)ccc2-c2ccc(C#C[Si](C)(C)C)cc2)cc1` returned a melting point of 223 to 224 °C. Then `COC(=O)c1ccc(OCCCN2CCN(c3ccc(Cl)nn3)CC2)cc1`, with 128 to 130 °C; and `COc1ccc(C(=O)Nc2ccccc2)cc1NS(=O)(=O)c1ccc(F)cc1F`, with 198 to 200 °C. Under `CCOC(=O)c1cnc2c(SCN3CCSCC3)cccn2c1=O` stands 128 to 130 °C; under `O=C(O)CC(=O)Nc1ccc2c(=O)[nH]c(=O)n(CCCCN3CCC(OC(c4ccccc4)c4ccccc4)CC3)c2c1`, 230 to 232 °C. Then `CCCC(C)(C)NC(=O)n1nc(C)n(N)c1=O`, with 110 °C. The molecule `O=C(O)C1(c2ccccc2)CCCCC1` showed a melting point of 118 to 121 °C. Under `CC(C)=C(C=O)CC(=O)O` stands 102 °C; under `CCCOc1cc(Cl)ccc1-c1nc2ncn(C)c(=S)n2n1`, 160 to 162 °C. The molecule `Cc1oc(-c2ccccc2)nc1COc1ccc(Cn2cc(CC(=O)O)c(-c3ccccc3)n2)cn1` gave a melting point of 144 to 145 °C.

Regarding `Clc1ccc(OCc2ccc3ccccc3n2)cc1Cl`, the melting point lay in the range of 80.5 to 82 °C.

Turning to `CCOC(=O)Cn1c(=S)c2ccccc2n(Cc2ccc(Br)cc2F)c1=O`, the melting point was in the range of 109 to 110 °C.

`CC(=O)NC(Cc1ccccc1)C(O)C(Cc1ccccc1)NC(C)=O` (stereo not given) yielded a melting point of 125 to 126 °C. Turning to `O=C1CN(Cc2ccccc2)c2cc(-c3cccc(Cl)c3)ccc2N1`, the melting point was in the range of 182 to 185 °C. In turn, `CCCCOC(=O)Cc1nc(-c2ccc(Cl)cc2)oc1-c1ccsc1` yielded a melting point of 79 to 81 °C.

Take `N#Cc1ccc(S(=O)(=O)N2CCN(C(=O)C3CCN(c4ccncn4)CC3)CC2)cc1`: the melting point was 180 to 181 °C. The molecule `Cn1cccc1-c1oncc1C(=O)Nc1ccccc1` had a melting point of 100 to 103 °C.

On to `CN(c1cccc2cc(C3=NCC4(CCC5(CC4)OCCO5)S3)[nH]c12)S(=O)(=O)c1cccs1`, for which the melting point lay within 224 to 225 °C. Then `CN(C)C[C@@H]1C(=O)N[C@H]1SC(c1ccccc1)(c1ccccc1)c1ccccc1` (relative stereo), with 129 to 131 °C; and `CC12C=CC(=O)C=C1CCC1C2CCC2(C)C1CCC21CC(=O)CO1` (stereo not given), with 147 to 153 °C; and `C=CCOc1ccc(-c2ccc(C(=O)OCC)cc2)cc1`, with 89 to 92 °C. Under `CCCC(C(=O)N(CC)CC)n1cc(C)c(-c2ccccc2)n1` (stereo not given) stands 65 to 67 °C; under `CC1=C(C(=O)NCc2ccncc2)SCN1n1ccc(O)cc1=O`, 275 to 278 °C.

Consider `c1ccc2c(c1)C[C@@H]1CCc3ccccc3[C@@H]1O2` (relative stereo), for which the melting point lay within 71 to 72 °C. Consider `Oc1ccc(C2CC2(Cl)Cl)cc1` (stereo not given), for which the melting point was 54.5 to 56 °C. Then `Cc1c(-c2ccc(S)nn2)ssc1=S`, with 245 °C. The molecule `COc1nc(N)nc(-c2ccccc2)n1` registered a melting point of 159 to 160 °C. For the molecule `O=C(c1ccc(Cn2cnc3cnccc32)cc1)N1CCOCC1`, the melting point was in the range of 119 to 121 °C. `CCOCc1nc2c(N)nc(C)c(C)c2n1CCNS(C)(=O)=O` had a melting point of 185 to 187 °C. Then `COc1ccc(Cl)cc1C(=O)NCCC1CCN(S(=O)(=O)NC(=O)NC2CC2)CC1`, with 138 to 139 °C; and `COC(=O)c1ccccc1C(=O)Nc1cc(C(F)(F)F)on1`, with 116 to 117 °C; and `Cc1cc(-n2ccnc2)c2cccc(OCc3c(Cl)ccc(S(=O)(=O)N4CSC[C@H]4C(=O)O)c3Cl)c2n1`, with 130 °C. The molecule `Cc1ccc(C(C)(O)P(O)O)cc1` (stereo not given) had a melting point of 115 °C. Then `CCOC(=O)CCC(=O)NCc1ccc([N+](=O)[O-])cc1`, with 104 to 106 °C; and `CC(C)(C)C1CCc2c(c3ccccc3n2CC[N+]2([O-])CCCC2)C1` (stereo not given), with 163 to 165 °C.

For the origin of these results see a melting point compilation (Tetko et al.; mined from patent text by program, amines drawn as free bases though some values may be those of a salt).
